Laboratory results taken from the supplement of paper PMC10307832.

Assays:
Assay in all cases: relative viability (nuclei count vs DMSO), 5 days (fraction); higher = more cells survive
NCI-H1734 = system: NCI-H1734
In short: (§1)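 Values are medians from duplicate plates. Each reflects relative viability, defined as the nuclei count of treated wells over that of vehicle wells. Lung cancer cell lines in 1536-well plates were pin-tool dosed one day after seeding with one drug alone or with a fixed anchor-drug dose plus five library-drug doses (not always all listed) in √10 steps, then fixed, stained and imaged at 4× after 5 days.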

LCLC-97TM1 = system: LCLC-97TM1
In short: as §1

NCI-H2405 = system: NCI-H2405
In short: as §1

NCI-H2228 = system: NCI-H2228
In short: as §1

HCC-827 = system: HCC-827
In short: as §1

PC-14 = system: PC-14
In short: as §1

NCI-H661 = system: NCI-H661
In short: as §1

HCC-15 = system: HCC-15
In short: as §1

NCI-H520 = system: NCI-H520
In short: as §1

NCI-H1650 = system: NCI-H1650
In short: as §1

NCI-H1755 = system: NCI-H1755
In short: as §1

COc1cc2nccc(Oc3ccc(NC(=O)Nc4cc(C)on4)c(Cl)c3)c2cc1OC [Tivozanib] + CS(=O)(=O)CCNCc1ccc(-c2ccc3ncnc(Nc4ccc(OCc5cccc(F)c5)c(Cl)c4)c3c2)o1 [Lapatinib] (partner 2 µM) showed a relative viability (NCI-H1734; first compound 0.1581 µM) of 0.814, a relative viability (NCI-H1734; first compound 0.5 µM) of 1.01 and a relative viability (LCLC-97TM1; first compound 0.005 µM) of 0.948. It also gave a relative viability (LCLC-97TM1; first compound 0.01581 µM) of 1.23, a relative viability (LCLC-97TM1; first compound 0.1581 µM) of 0.807 and a relative viability (LCLC-97TM1; first compound 0.5 µM) of 0.821. For the same compound, the relative viability (NCI-H2405; first compound 0.005 µM) was 0.972, the relative viability (NCI-H2405; first compound 0.01581 µM) was 1.28 and the relative viability (NCI-H2405; first compound 0.05 µM) was 1.1. The relative viability (NCI-H2405; first compound 0.1581 µM) was 1.01, the relative viability (NCI-H2405; first compound 0.5 µM) was 0.572 and the relative viability (NCI-H2228; first compound 0.005 µM) was 1.07. It also gave a relative viability (NCI-H2228; first compound 0.01581 µM) of 1.1, a relative viability (NCI-H2228; first compound 0.05 µM) of 1.07 and a relative viability (NCI-H2228; first compound 0.1581 µM) of 1.03. The relative viability (NCI-H2228; first compound 0.5 µM) was 0.948, the relative viability (HCC-827; first compound 0.005 µM) was 0.244 and the relative viability (HCC-827; first compound 0.01581 µM) was 0.181. The relative viability (HCC-827; first compound 0.05 µM) was 0.204, the relative viability (HCC-827; first compound 0.1581 µM) was 0.233 and the relative viability (HCC-827; first compound 0.5 µM) was 0.842. It also gave a relative viability (PC-14; first compound 0.005 µM) of 0.245, a relative viability (PC-14; first compound 0.01581 µM) of 0.325 and a relative viability (PC-14; first compound 0.05 µM) of 0.308. For the same compound, the relative viability (PC-14; first compound 0.1581 µM) was 0.255, the relative viability (PC-14; first compound 0.5 µM) was 0.332 and the relative viability (NCI-H661; first compound 0.005 µM) was 0.436. The relative viability (NCI-H661; first compound 0.01581 µM) was 0.495, the relative viability (NCI-H661; first compound 0.05 µM) was 0.46 and the relative viability (NCI-H661; first compound 0.1581 µM) was 0.496. For the same compound, the relative viability (NCI-H661; first compound 0.5 µM) was 0.553, the relative viability (HCC-15; first compound 0.005 µM) was 0.83 and the relative viability (HCC-15; first compound 0.01581 µM) was 0.899. The relative viability (HCC-15; first compound 0.05 µM) was 0.795, the relative viability (HCC-15; first compound 0.1581 µM) was 0.977 and the relative viability (HCC-15; first compound 0.5 µM) was 0.831. The relative viability (NCI-H520; first compound 0.005 µM) was 0.763, the relative viability (NCI-H520; first compound 0.01581 µM) was 0.912 and the relative viability (NCI-H520; first compound 0.05 µM) was 0.87. The relative viability (NCI-H520; first compound 0.1581 µM) was 0.82, the relative viability (NCI-H520; first compound 0.5 µM) was 0.757 and the relative viability (NCI-H1650; first compound 0.005 µM) was 0.707. For the same compound, the relative viability (NCI-H1650; first compound 0.01581 µM) was 0.845, the relative viability (NCI-H1650; first compound 0.05 µM) was 0.836 and the relative viability (NCI-H1650; first compound 0.1581 µM) was 0.717. For the same compound, the relative viability (NCI-H1650; first compound 0.5 µM) was 0.721, the relative viability (NCI-H1755; first compound 0.005 µM) was 0.945 and the relative viability (NCI-H1755; first compound 0.01581 µM) was 0.991. For the same compound, the relative viability (NCI-H1755; first compound 0.05 µM) was 1.03, the relative viability (NCI-H1755; first compound 0.1581 µM) was 1.02 and the relative viability (NCI-H1755; first compound 0.5 µM) was 1.02.
